Literature values, collected in patent publication US20240238196A1 (Shilpa Medicare Limited, priority 2021, published 2024).

Solubility in organic solvents (organic solvents, slightly soluble, according to CHMP assessment report for Xarelto): 1.0 to 10.0 g/L
Solubility in water (in words) (water): practically insoluble
SMILES: O=C(NC[C@H]1CN(c2ccc(N3CCOCC3=O)cc2)C(=O)O1)c1ccc(Cl)s1 [Rivaroxaban, 5-Chloro-N-({(5S)-2-oxo-3-[4-(3-oxo-4-morpholinyl)phenyl]-1,3-oxazolidin5-yl}methyl)-2-thiophenecarboxamide]
